# Experimental data published in patent publication US20220387429A1, “USE OF IMIDAZOPYRIMIDINE OR IMIDAZOTRIAZINE COMPOUND FOR PREVENTION, ALLEVIATION, OR TREATMENT OF DEVELOPMENTAL DISABILITY” (SK BIOPHARMACEUTICALS CO., LTD., priority 2019, published 2022).
# How the values were obtained:
# [1] = system: Fmr1 gene knockout mouse model; experiment: Audiogenic seizure test, anticonvulsant efficacy; format: in vivo; conditions: Fmr1 gene knockout mice, 2 mg/kg intraperitoneally twice a day for 6 weeks
# Source text: (§1) An Fmr1 gene knockout mouse model was used as an animal model of fragile X syndrome. This model lacks FMRP protein due to disruption of the Fmr1 gene. Typical phenotypes of this mouse model include audiogenic seizure, hyperlocomotor activity, cognitive deficit, concentration deficit disorder, and the like.
# (§2) Male Fmr1 C57BL/6J knock-out mice derived from the early group imported from Jackson Laboratories were used in the experiments. The experimental animals were raised in a light-controlled environment (illuminated for 12 hours/nonilluminated for 12 hours) and maintained at a temperature of 21° C.±2° C. and a relative humidity of about 55%±5%. Food and water were ad libitum fed. An anticonvulsant efficacy experiment on audiogenic seizure, a contextual fear conditioning experiment, an open field test, and a marble burying test in the Fmr1 gene knockout mouse model was performed by Fragile X Syndrome Drug Validation Initiative (FRAXA-DVI). The mice were randomly divided into groups and the test was performed under illumination.
# (§3) The test compound was dissolved in 10% DMSO (dimethylsulfoxide)+30% PEG 300 in DW (distilled water), and administered intraperitoneally at a dose of 2 mg/kg twice a day for 6 weeks. To a control group, vehicle (10% DMSO (dimethylsulfoxide)+30% PEG 300 in DW (distilled water)) was administered.
# (§4) Ten mice per group were used.
# (§5) After the vehicle or test compound was administered intraperitoneally at a dose of 2 mg/kg twice a day for 6 weeks, the mice were placed in a chamber and exposed to an alarm. The response of the mice during the test was evaluated numerically by the following criteria according to the intensity of seizure, and the survival rate was also observed.
# (§6) 1: Wild running and jumping
# [2] = system: Fmr1 gene knockout mouse model; experiment: Open field test; format: in vivo; conditions: Fmr1 gene knockout mice; 2 mg/kg intraperitoneally twice a day for 6 weeks; versus wild-type mice, P value of 0.0001 or less
# Source text: as §1
# Male Fmr1 C57BL/6J knock-out mice derived from the early group imported from Jackson Laboratories were used in the experiments. The experimental animals were raised in a light-controlled environment (illuminated for 12 hours/nonilluminated for 12 hours) and maintained at a temperature of 21° C.±2° C. and a relative humidity of about 55%±5%. Food and water were ad libitum fed. […]
# After the vehicle or test compound was administered intraperitoneally at a dose of 2 mg/kg twice a day for 6 weeks, an open field test was performed to observe the efficacy behavior of mice who fearlessly stepped out to the center of the open field. […] The number of times the mouse crossed the center of the open field was measured by the breakage of the horizontal beam due to the mouse's movement. […]
# (§7) After data analysis by ANOVA, the effect was defined as significant when p<0.05. All results were expressed as mean±SEM.
# Wild-type mice = experiment: Audiogenic seizure test in wild-type mice; format: in vivo, mouse; conditions: 2 mg/kg intraperitoneally twice a day for 6 weeks
# Method: [The source words this procedure for another variant and reports this variant under the same test.] as §2, §3, §4, §5, §6
# [3] = system: Fmr1 gene knockout mouse model; experiment: Marble burying test; format: in vivo; conditions: Fmr1 gene knockout mice; 2 mg/kg intraperitoneally twice a day for 6 weeks; versus vehicle-administered knockout group
# Source text: as §1
# as §2, with “The mice were randomly divided into groups and the test was performed under illumination.” left out
# After the vehicle or test compound was administered intraperitoneally at a dose of 2 mg/kg twice a day for 6 weeks, a hippocampal function-dependent marble burying test was performed. […] The mouse was placed and left for 30 minutes, then the number of marbles buried by the mouse was counted.
# as §7
# [4] = system: Fmr1 gene knockout mouse model; experiment: Contextual fear conditioning experiment; format: in vivo; conditions: Fmr1 gene knockout mice; 2 mg/kg intraperitoneally twice a day for 6 weeks; versus vehicle-administered knockout group
# Source text: as §1, §2
# The test compound was dissolved in 10% DMSO (dimethylsulfoxide)+30% PEG 300 in DW (distilled water), and administered intraperitoneally at a dose of 2 mg/kg twice a day for 6 weeks. […]
# as §7
structure (smiles),measurement,setting,value
"Fc1ccc(-c2cnc3nc(COc4ccccn4)cn3c2)c(C(F)(F)F)c1 [test compound, 6-[4-fluoro-2-(trifluoromethyl)phenyl]-2-(2-pyridyloxymethyl)imidazo[1,2-a]pyrimidine]",Seizures of 3 or more points,[1]; mice affected/mice in group,5/10
same,Wild running,[1]; mice affected/mice in group,6/10
same,Vulnerability to audiogenic seizure,"[1]; proportion of wild running mice, vehicle group 90%, 2 mg/kg",60%
same,Survival rate,[1]; survivors/mice in group,5/10
same,"Number of times the mouse crossed the center (open field, FIG. 2)",[2],significant increase in movement compared to the wild-type mice
same,Audiogenic seizure phenotype,Wild-type mice,no mice showed audiogenic seizure phenotype
same,Seizures of 3 or more points,Wild-type mice; mice affected/mice in group,0/10
same,Wild running,Wild-type mice; mice affected/mice in group,0/10
same,Vulnerability to audiogenic seizure,Wild-type mice; proportion of wild running mice,0%
same,Survival rate,Wild-type mice; survivors/mice in group,10/10
same,Number of marbles buried (FIG. 3),[3],increased compared to that in the vehicle-administered group of Fmr1 gene knockout mice
same,"Freezing behavior (contextual fear conditioning, FIG. 1)",[4],significantly increased freezing behavior compared to the vehicle-administered group
